Assay results as given in ChEMBL document CHEMBL1240317, “Probing cell-division phenotype space and Polo-like kinase function using small molecules” (Nat Chem Biol, 2006).
Activity calls are given as the source filed them.

Columns and labels:
[1] = test system: PtK2; assay: Inhibition of polo-like kinase 1 activity in rat kangaroo PtK2 cells expressing GFP-labeled alpha-tubulin assessed as interkinetochore distance at 33 uM after 45 mins; format: cell-based; details: Potorous tridactylus
[2] = test system: BSC-1; assay: Antimitotic activity against african green monkey BSC1 cells assessed as induction of monopolar spindles at 20 uM by immunofluorescence microscopy; format: functional, cell-based; details: Chlorocebus aethiops
[3] = test system: BSC-1; assay: Induction of deffects in mitotic spindle in african green monkey BSC1 cells at 20 uM after 4 hrs by immunocytochemistry; format: functional, cell-based; details: Chlorocebus aethiops
[4] = test system: BSC-1; assay: Antimitotic activity against african green monkey BSC1 cells assessed as induction of sphere like organization at 2.5 uM by immunofluorescence microscopy; format: functional, cell-based; details: Chlorocebus aethiops
[5] = test system: U2OS; assay: Disruption of interphase microtubule organization in human U2OS cells at 250 uM after 4 hrs by immunofluorescence; format: functional, cell-based
[6] = test system: U2OS; assay: Reduction in gamma-tubulin level in centrosomes in human U2OS cells at 250 uM after 4 hrs by immunofluorescence; format: functional, cell-based
[7] = test system: BSC-1; assay: Antimitotic activity against african green monkey BSC1 cells assessed as induction of chromosome alignment deffects at 20 uM by immunofluorescence microscopy; format: functional, cell-based; details: Chlorocebus aethiops
[8] = test system: BSC-1; assay: Induction of reduced mitotic index in african green monkey BSC1 cells at 20 uM after 4 hrs by immunocytochemistry; format: functional, cell-based; details: Chlorocebus aethiops
[9] = test system: BSC-1; assay: Antimitotic activity against african green monkey BSC1 cells assessed as induction of monopolar spindles and spindle pole deffects at 20 uM by immunofluorescence microscopy; format: functional, cell-based; details: Chlorocebus aethiops
[10] = test system: BSC-1; assay: Antimitotic activity against african green monkey BSC1 cells assessed as induction of normal spindles at 2.5 uM by immunofluorescence microscopy; format: functional, cell-based; details: Chlorocebus aethiops
[11] = test system: BSC-1; assay: Antimitotic activity against african green monkey BSC1 cells assessed as induction of monopolar spindles by immunofluorescence microscopy; format: functional, cell-based; details: Chlorocebus aethiops
[12] = test system: BSC-1; assay: Antimitotic activity against african green monkey BSC1 cells assessed as induction of monopolar spindles and two separated astral microtubule array at 20 uM by immunofluorescence microscopy; format: functional, cell-based; details: Chlorocebus aethiops
[13] = test system: BSC-1; assay: Induction of monopolar mitotic spindles in african green monkey BSC1 cells assessed as kinesin-5 (Eg5) inhibition at 100 uM after 4 hrs; format: functional, cell-based; details: Chlorocebus aethiops
[14] = test system: BSC-1; assay: Induction of monopolar mitotic spindles in african green monkey BSC1 cells assessed as percentage of monopolar cells with two centrosomes at 20 uM after 4 hrs; format: functional, cell-based; details: Chlorocebus aethiops
[15] = test system: BSC-1; assay: Antimitotic activity against african green monkey BSC1 cells assessed as induction of bipolar spindles with decrease in pole to pole distance at 20 uM by immunofluorescence microscopy; format: functional, cell-based; details: Chlorocebus aethiops
[16] = biological target: T1, Serine/threonine-protein kinase PLK1 (Homo sapiens, UniProt P53350); assay: Inhibition of recombinant polo-like kinase 1 activity by SDS-PAGE
[17] = test system: PtK2; assay: Antimitotic activity in rat kangaroo PtK2 cells expressing GFP-labeled alpha-tubulin in presence of monastrol assessed as cells remained in mitosis at 6 uM after 90 mins by phase-contrast microscopy; format: functional, cell-based; details: Potorous tridactylus
[18] = test system: U2OS; assay: Induction of monopolar spindles and reduction in gamma-tubulin at the centrosomes in human U2OS cells at 50 uM after 4 hrs by immunofluorescence; format: functional, cell-based
[19] = test system: PtK2; assay: Change in microtubule dynamics in rat kangaroo PtK2 cells expressing GFP-labeled alpha-tubulin by replacing with PLK inhibitor- free medium; format: functional, cell-based; details: Potorous tridactylus
[20] = test system: PtK2; assay: Induction of mitotic index in rat kangaroo PtK2 cells expressing GFP-labeled alpha-tubulin after 4 hrs; format: functional, cell-based; details: Potorous tridactylus
[21] = test system: PtK2; assay: Inhibition of polo-like kinase 1 activity in rat kangaroo PtK2 cells expressing GFP-labeled alpha-tubulin assessed as stable microtubule bundles at 6.3 uM at 20 sec time interval for 5 min by spinning disk confocal microscopy; format: cell-based; details: Potorous tridactylus
[22] = biological target: T1, Serine/threonine-protein kinase PLK1; assay: Inhibition of recombinant polo-like kinase 1 activity at 100 nM by SDS-PAGE
[23] = test system: PtK2; assay: Inhibition of Aurora kinase activity in rat kangaroo PtK2 cells assessed as histone H3 phosphorylation at 6.3 uM after 1 hr by quantitative fluorescence; format: cell-based; details: Potorous tridactylus
[24] = test system: U2OS; assay: Induction of monopolar spindles and reduction in gamma-tubulin at the centrosomes in human U2OS cells at 25 uM after 4 hrs by immunofluorescence; format: functional, cell-based
[25] = test system: PtK2; assay: Inhibition of polo-like kinase 1 activity in rat kangaroo PtK2 cells expressing GFP-labeled alpha-tubulin assessed as V-shaped chromosome at 20 uM by spinning disk confocal microscopy in presence of 20 uM MG132; format: cell-based; details: Potorous tridactylus
[26] = test system: PtK2; assay: Inhibition of polo-like kinase 1 activity in rat kangaroo PtK2 cells expressing GFP-labeled alpha-tubulin assessed as phosphorylation of Cdc25c at centrosomes after 1 hr by quantitative immunofluorescence; format: cell-based; details: Potorous tridactylus
[27] = test system: PtK2; assay: Inhibition of polo-like kinase 1 activity in rat kangaroo PtK2 cells expressing GFP-labeled alpha-tubulin assessed as phosphorylation of Cdc25c at 6.3 uM after 1 hr by quantitative immunofluorescence; format: cell-based; details: Potorous tridactylus
[28] = test system: PtK2; assay: Induction of monopolar mitotic spindles in rat kangaroo PtK2 cells expressing GFP-labeled alpha-tubulin after 4 hrs; format: functional, cell-based; details: Potorous tridactylus
[29] = test system: PtK2; assay: Inhibition of polo-like kinase 1 activity in rat kangaroo PtK2 cells expressing GFP-labeled alpha-tubulin assessed as V-shaped chromosome at 6.3 uM by spinning disk confocal microscopy in presence of 20 uM MG132; format: cell-based; details: Potorous tridactylus
[30] = test system: PtK2; assay: Inhibition of polo-like kinase 1 activity in rat kangaroo PtK2 cells expressing GFP-labeled alpha-tubulin assessed as shortening of chromosome associated microtubule fibres at 6.3 uM by spinning disk confocal microscopy in presence of 20 uM MG132; format: cell-based; details: Potorous tridactylus
[31] = test system: PtK2; assay: Inhibition of polo-like kinase 1 activity in rat kangaroo PtK2 cells expressing GFP-labeled alpha-tubulin assessed as interkinetochore distance at 6 uM after 45 mins; format: cell-based; details: Potorous tridactylus
[32] = test system: BSC-1; assay: Induction of monopolar mitotic spindles in african green monkey BSC1 cells assessed as percentage of monopolar cells with two centrosomes at 5 uM after 4 hrs; format: functional, cell-based; details: Chlorocebus aethiops
[33] = test system: PtK2; assay: Inhibition of polo-like kinase 1 activity in rat kangaroo PtK2 cells expressing GFP-labeled alpha-tubulin assessed as shortening of chromosome associated microtubule fibres at 20 uM by spinning disk confocal microscopy in presence of 20 uM MG132; format: cell-based; details: Potorous tridactylus
[34] = test system: PtK2; assay: Induction of monopolar mitotic spindles in rat kangaroo PtK2 cells expressing GFP-labeled alpha-tubulin at 6.3 uM after 4 hrs; format: functional, cell-based; details: Potorous tridactylus
[35] = test system: PtK2; assay: Induction of monopolar mitotic spindles in rat kangaroo PtK2 cells expressing GFP-labeled alpha-tubulin at 20 uM after 4 hrs; format: functional, cell-based; details: Potorous tridactylus
[36] = test system: PtK2; assay: Inhibition of polo-like kinase 1 activity in rat kangaroo PtK2 cells expressing GFP-labeled alpha-tubulin assessed as interkinetochore distance at 20 uM after 45 mins; format: cell-based; details: Potorous tridactylus
[37] = test system: PtK2; assay: Antimitotic activity in rat kangaroo PtK2 cells expressing GFP-labeled alpha-tubulin in presence of monastrol assessed as cells remained in mitosis at 20 uM after 90 mins by phase-contrast microscopy; format: functional, cell-based; details: Potorous tridactylus
[38] = test system: PtK2; assay: Inhibition of polo-like kinase 1 activity in rat kangaroo PtK2 cells expressing GFP-labeled alpha-tubulin assessed as phosphorylation of Cdc25c at 20 uM after 1 hr by quantitative immunofluorescence; format: cell-based; details: Potorous tridactylus
[39] = test system: PtK2; assay: Inhibition of Aurora kinase activity in rat kangaroo PtK2 cells assessed as histone H3 phosphorylation at 25 uM after 1 hr by quantitative fluorescence; format: cell-based; details: Potorous tridactylus
[40] = test system: BSC-1; assay: Induction of severe microtubule disruption in african green monkey BSC1 cells at 20 uM after 4 hrs by immunocytochemistry; format: functional, cell-based; details: Chlorocebus aethiops

T1 sequence (P53350 whole entry): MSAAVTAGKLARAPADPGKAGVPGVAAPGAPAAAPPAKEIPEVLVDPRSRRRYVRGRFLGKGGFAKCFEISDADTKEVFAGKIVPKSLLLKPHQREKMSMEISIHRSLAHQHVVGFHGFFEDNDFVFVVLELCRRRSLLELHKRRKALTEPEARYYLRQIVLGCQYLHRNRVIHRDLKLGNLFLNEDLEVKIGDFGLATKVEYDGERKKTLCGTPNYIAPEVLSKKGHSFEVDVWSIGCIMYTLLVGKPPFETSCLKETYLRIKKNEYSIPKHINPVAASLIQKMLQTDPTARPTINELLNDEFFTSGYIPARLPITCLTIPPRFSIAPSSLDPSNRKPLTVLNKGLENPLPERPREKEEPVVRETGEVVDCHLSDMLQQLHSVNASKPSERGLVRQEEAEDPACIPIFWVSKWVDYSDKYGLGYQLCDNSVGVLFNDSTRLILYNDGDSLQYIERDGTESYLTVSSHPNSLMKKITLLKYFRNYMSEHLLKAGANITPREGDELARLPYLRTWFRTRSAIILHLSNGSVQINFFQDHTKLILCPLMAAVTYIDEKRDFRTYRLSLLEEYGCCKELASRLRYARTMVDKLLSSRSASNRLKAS

SMILES: COC(=O)Nc1nc2cc(C(=O)c3cccs3)ccc2[nH]1
- interkinetochore distance [1]: 1.4 µm

SMILES: CN1CCN(c2ccc(Nc3ncc([N+](=O)[O-])c(Nc4ccccc4C(=O)c4ccccc4)n3)cc2)CC1
- Activity [2]: Active
- Activity [3]: Active
- Activity [4]: Active

SMILES: COc1cc(OC)c(/C=C/S(=O)(=O)Cc2ccc(OC)c(NCC(=O)O)c2)c(OC)c1
- Activity [5]: inactive
- Activity [6]: inactive

SMILES: c1csc(CNc2nccc(Nc3ccc4c(c3)OCO4)n2)c1
- Activity [7]: Active
- Activity [3]: Active

SMILES: CCCCNc1nc(Nc2ccc(N3CCN(C)CC3)cc2)ncc1[N+](=O)[O-]
- Activity [8]: Active
- Activity [9]: Active

SMILES: c1cc(Nc2ccc3c(c2)CCC3)nc(Nc2ccc3ncsc3c2)n1
- Activity [10]: Active
- EC50 [11]: 30 µM
- Activity [12]: Active
- Activity [13]: Active
- Activity [14]: Active
- Activity [3]: Active

SMILES: O=C(c1ccccc1)c1ccccc1Nc1nc(Nc2ccc3c(c2)OCO3)ncc1[N+](=O)[O-]
- Activity [7]: Active
- Activity [3]: Active

SMILES: c1cc(Nc2ccc3c(c2)OCO3)nc(Nc2ccc3c(c2)CCC3)n1
- Activity [15]: Active
- Activity [3]: Active

SMILES: CC(=O)Nc1ccc(Nc2ncc([N+](=O)[O-])c(Nc3ccccc3C(=O)c3ccccc3)n2)cc1
- Activity [2]: Active
- IC50 [16]: 0.9 µM
- Activity [17]: Active
- Activity [18]: Active
- Activity [19]: Active
- Activity [20]: Dose-dependent effect
- inhibition [21]: Active
- inhibition [22]: inactive
- inhibition [23]: 20%
- Activity [24]: Active
- EC50 [11]: 5 µM
- inhibition [25]: Active
- Activity [26]: Dose-dependent effect
- inhibition [27]: Active
- Activity [8]: Active
- Activity [13]: Active
- Activity [28]: Dose-dependent effect
- inhibition [29]: Active
- inhibition [30]: Active
- interkinetochore distance [31]: 1.9 µm
- Activity [32]: Active
- inhibition [33]: Active
- Activity [34]: Active
- Activity [4]: Active

SMILES: N#Cc1cc([N+](=O)[O-])c2sc(C(N)=O)[n+]([O-])c2c1
- IC50 [16]: 8 µM
- Activity [18]: Active
- Activity [20]: Dose-dependent effect
- Activity [24]: Active
- Activity [26]: Dose-dependent effect
- Activity [35]: Active
- Activity [28]: Dose-dependent effect
- interkinetochore distance [36]: 2.3 µm
- Activity [37]: Active
- inhibition [38]: Active
- inhibition [39]: 20%

SMILES: O=[N+]([O-])c1cnc(NC2CCCC2)nc1Nc1ccc2[nH]ccc2c1
- Activity [8]: Active
- Activity [40]: Active
- Activity [3]: Active

SMILES: NC(=O)c1ccccc1Nc1nc(NC2CCCCCC2)ncc1[N+](=O)[O-]
- Activity [8]: Active
- Activity [40]: Active
- Activity [3]: Active

SMILES: c1ccc2cc(Nc3nccc(Nc4ccc5c(c4)OCO5)n3)ccc2c1
- Activity [8]: Active
- Activity [40]: Active
- Activity [3]: Active

SMILES: OCC(Cc1ccccc1)Nc1nccc(Nc2ccc3c(c2)OCO3)n1 (configuration not stated)
- Activity [8]: Active
- Activity [40]: Active
- Activity [3]: Active

SMILES: CN1CCN(c2ncc([N+](=O)[O-])c(Nc3ccccc3C(=O)c3ccccc3)n2)CC1
- Activity [8]: Active
- Activity [40]: Active
- Activity [3]: Active

SMILES: CN1CCN(c2ccc(Nc3ncc([N+](=O)[O-])c(Nc4ccc(Cl)c(Cl)c4)n3)cc2)CC1
- Activity [8]: Active
- Activity [40]: Active
- Activity [3]: Active

SMILES: O=[N+]([O-])c1cnc(Nc2ccc3ccccc3c2)nc1Nc1ccc(Cl)c(Cl)c1
- Activity [8]: Active
- Activity [40]: Active
- Activity [3]: Active

SMILES: CC(C)(C)c1ccc(Nc2ncc([N+](=O)[O-])c(Sc3cccc(Cl)c3)n2)cc1
- Activity [8]: Active
- Activity [40]: Active
- Activity [3]: Active

SMILES: CCCCNc1nc(Nc2ccc(C(C)(C)C)cc2)ncc1[N+](=O)[O-]
- Activity [8]: Active
- Activity [40]: Active
- Activity [3]: Active
